In publication PMC9287337 (Scientific Reports, 2022):

B1: BMP6: recombinant BMP family member (protein, UniProt P22004 375-513, looked up)
Bone morphogenetic protein 6: SASSRRRQQSRNRSTQSQDVARVSSASDYNSSELKTACRKHELYVSFQDLGWQDWIIAPKGYAANYCDGECSFPLNAHMNATNHAIVQTLVHLMNPEYVPKPCCAPTKLNAISVLYFDDNSNVILKKYRNMVVRACGCH
B2: BMP4: BMP ligand used as comparator in the literature study (protein, UniProt P12644 293-408, looked up)
Bone morphogenetic protein 4: SPKHHSQRARKKNKNCRRHSLYVDFSDVGWNDWIVAPPGYQAFYCHGDCPFPLADHLNSTNHAIVQTLVNSVNSSIPKACCVPTELSAISMLYLDEYDKVVLKNYQEMVVEGCGCR
B3: BMP7: recombinant BMP family member (protein, UniProt P18075 293-431, looked up)
Bone morphogenetic protein 7: STGSKQRSQNRSKTPKNQEALRMANVAENSSSDQRQACKKHELYVSFRDLGWQDWIIAPEGYAAYYCEGECAFPLNSYMNATNHAIVQTLVHFINPETVPKPCCAPTQLNAISVLYFDDSSNVILKKYRNMVVRACGCH

Assays:
[1] = test system: type I BMP receptor-dependent p-Smad; experiment: Western blot of p-Smad in presence or absence of Dorsomorphin; type: cell-based, mouse; conditions: 10 µM inhibitor, compounds 1 µM, 30 min
Experimental: Total whole cell lysates were prepared and used for Western blot analysis of Smad phosphorylation using anti-p-Smad antibodies.
C2C12 cells (3 mL) were seeded into 35 mm dishes at 7.5 × 10^4 cells/mL in complete growth medium, incubated to reach 80% confluence and serum-starved for 16–18 h. […] Thereafter, the cultures were washed with ice-cold 1X TBS for 2 min. Lysis Buffer (Cell Signaling Technology, Danvers, MA, USA) supplemented with 1 mM PMSF (phenylmethylsulphonyl fluoride) was added to the cultures and whole cell lysates were prepared.
Laemmli sample buffer (4X) was added to the whole cell lysates (20 µg) to a final concentration of 1X and heated at 100 °C for 5 min. The samples were immediately cooled on ice for 5 min and centrifuged at 9500 rpm for 2 min at RT. The samples and the Precision Plus Protein Standard (5 µL; Bio-Rad, Hercules, CA, USA) were loaded on 12% SDS polyacrylamide gels. Protein was separated using the Bio-Rad Mini Protean II Gel Electrophoresis System at 135 V. Meanwhile, 0.2 µm nitrocellulose membranes were pre-incubated in cold 1X Transfer Buffer (10 mM Tris/2.5 mM glycine/20% methanol) for at least 30 min. Next, the separated proteins were transferred at 100 V onto the pre-equilibrated nitrocellulose membranes for 1 h in Transfer Buffer, followed by blocking in 5% BSA/0.1% Tween 20/1X TBS for 30 min. The membranes were incubated overnight at 4 °C with the desired primary rabbit monoclonal antibody (p-Smad1/5(S463/465)/9(S465/467), Smad1 (D5907) XP®, p-Akt (Ser473) (D9E) XP®, or Akt (pan) (C67E7), p-SAPK/JNK (Thr183/Tyr185), SAPK/JNK, β-actin (Cell Signaling Technologies, Danvers, MA, USA)) or rabbit polyclonal antibody (phospho-PI3 Kinase p85 (Tyr458)/p55 (Tyr199) antibody (Cell Signaling Technologies, Danvers, MA, USA), p-p38 MAPK, p38 MAPK, p-ERK1, ERK1/2) (Abclonal, Woburn, MA, USA)) in Antibody Dilution Buffer (1% BSA/0.1% Tween 20/1X TBS) and then washed with 1X TBST (0.1% Tween 20/1X TBS) three times for 15 min. HRP-conjugated Goat Anti-Rabbit IgG secondary antibody (Santa Cruz Biotechnology, Inc., Dallas, TX, USA) in Antibody Dilution Buffer was added to the membranes for 1 h at RT followed by three 15-min washes with 1X TBST. Finally, the blots were developed using SuperSignal ™ West Femto HRP Substrate solutions (Thermo Scientific, Rockford, IL, USA) and analysed using the Omega Lum™ G Imaging System (San Francisco, CA, USA). Quantification of chemiluminescent signals was carried out using ImageJ (Image Processing and Analysis in Java 1.8.0_112).

[2] = test system: C2C12 cells; experiment: Cell viability assay in presence or absence of Dorsomorphin; type: cell-based, mouse; conditions: 10 µM inhibitor, 24 h
Experimental: To resolve whether the SY-LB-35 or SY-LB-57 compound requires type I BMP receptor activity for the induction of cell viability in C2C12 cells, cell viability assays were carried out in the presence or absence of 10 µM DM.
C2C12 cells (100 µL) were seeded in a 96-well plate at 5 × 10^5 cells/mL and incubated overnight in complete growth media to achieve 80% confluency followed by serum-starvation for 16–18 h. […] For BMP receptor inhibition, cell viability assays were carried out in presence or absence of Dorsomorphin (DM; 10 µM; Sigma Aldrich, St. Louis, MO, USA), a non-selective inhibitor of type I BMP receptor activity.
(§1) Next, reagents from the RealTime-Glo™ MT Cell Viability Assay Kit (Promega, Madison, WI, USA) were diluted in SS medium and used according to manufacturer’s protocol. Cellular luminescence was measured using the FilterMax F5 Multi-mode Microplate Reader (Molecular Devices, San Jose, CA, USA). Data from three independent experiments with individual experiments carried out in triplicate was determined and reported as a percentage of control.

[3] = test system: p-Smad; set-up: method as in PMID 30602563; conditions: 30-min stimulation assays; cited from earlier work
[4] = test system: C2C12 cells; experiment: RealTime-Glo MT cell viability assay; type: cell-based, mouse; conditions: C2C12, 24 h, Supplemental Fig. S3
Experimental: To first determine how these novel compounds effect the health of C2C12 cells and to establish the range of subtoxic concentrations for future studies, cell viability assays were carried out. Serum-starved C2C12 cells were exposed to increasing concentrations (0.01–1000 µM) of SY-LB-35 and SY-LB-57 for 24 h. Exposure to Triton X-100 (125 µM) is toxic to cells and was used as a negative control for cell viability. Following the 24-h exposure period, the MT Cell viability substrate was added to the cultures. Only viable cells can reduce the substrate and, thereby, generate a luminescent signal. Any decrease in luminescence was considered an indication of cell death or toxicity.
C2C12 cells (100 µL) were seeded in a 96-well plate at 5 × 10^5 cells/mL and incubated overnight in complete growth media to achieve 80% confluency followed by serum-starvation for 16–18 h.
as §1

Molecule | Increase in p-Smad levels over control [3] | Effect on cell viability [4] | also measured
c1cc(-c2cnn3cc(-c4ccc(OCCN5CCCCC5)cc4)cnc23)ccn1 [DM, Dorsomorphin, reference compound] |  |  | Effect of inhibitor on p-Smad increase induced by SY-LB-35 and SY-LB-57 [1]: completely prevented the increase in p-Smad levels; Effect of inhibitor on cell viability increases stimulated by SY-LB-35 and SY-LB-57 [2]: complete inhibition of the cell viability increases
Brc1ccc(CSc2nc3ccccc3o2)cc1 [sb4, reference compound] | twofold |  | 
BMP9: recombinant BMP family member |  | Increases in cell viability | 
B1 |  | Increases in cell viability | 
B2 | 11 fold |  | 
B3 |  | Increases in cell viability | 
